Source: PubChem BioAssay (NCI)
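All cell lines were grown in 96-well plates and treated with compound for 48 hours. Definition used: TGI = concentration required for complete inhibition of growth.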

Tests used:
Assay in all cases: inhibition of tumour cell growth, NCI panel, 48 h
HOP-92 NSCLC = test system: HOP-92 NSCLC
SK-MEL-28 melanoma = test system: SK-MEL-28 melanoma
K-562 leukemia = test system: K-562 leukemia
HCC-2998 colon = test system: HCC-2998 colon
RXF-631 renal = test system: RXF-631 renal
SK-OV-3 ovarian = test system: SK-OV-3 ovarian
RXF 393 renal = test system: RXF 393 renal
786-0 renal = test system: 786-0 renal
A498 renal = test system: A498 renal
HOP-18 NSCLC = test system: HOP-18 NSCLC
LXFL 529 NSCLC = test system: LXFL 529 NSCLC
SF-268 CNS = test system: SF-268 CNS
SNB-78 CNS = test system: SNB-78 CNS
SW-620 colon = test system: SW-620 colon
OVCAR-8 ovarian = test system: OVCAR-8 ovarian
TK-10 renal = test system: TK-10 renal
A549 NSCLC = test system: A549 NSCLC
MOLT-4 leukemia = test system: MOLT-4 leukemia
HL-60(TB) leukemia = test system: HL-60(TB) leukemia
SF-539 CNS = test system: SF-539 CNS
DMS 114 small cell lung = test system: DMS 114 small cell lung
NCI-H522 lung = test system: NCI-H522 lung
CAKI-1 renal = test system: CAKI-1 renal
SNB-19 CNS = test system: SNB-19 CNS
RPMI-8226 leukemia = test system: RPMI-8226 leukemia
SF-295 CNS = test system: SF-295 CNS
EKVX NSCLC = test system: EKVX NSCLC
M14 melanoma = test system: M14 melanoma
HCT-15 colon = test system: HCT-15 colon
DLD-1 colon = test system: DLD-1 colon
SN12C renal = test system: SN12C renal
SNB-75 CNS = test system: SNB-75 CNS
HCT-116 colon = test system: HCT-116 colon
KM20L2 colon = test system: KM20L2 colon
ACHN renal = test system: ACHN renal
XF 498 CNS = test system: XF 498 CNS
OVCAR-4 ovarian = test system: OVCAR-4 ovarian
OVCAR-3 ovarian = test system: OVCAR-3 ovarian
LOX IMVI melanoma = test system: LOX IMVI melanoma
NCI-H226 lung = test system: NCI-H226 lung
NCI-H460 lung = test system: NCI-H460 lung
SR leukemia = test system: SR leukemia
HOP-62 NSCLC = test system: HOP-62 NSCLC
U251 CNS = test system: U251 CNS
UACC-257 melanoma = test system: UACC-257 melanoma
UO-31 renal = test system: UO-31 renal
IGROV1 ovarian = test system: IGROV1 ovarian
NCI-H23 lung = test system: NCI-H23 lung
SK-MEL-5 melanoma = test system: SK-MEL-5 melanoma
CCRF-CEM leukemia = test system: CCRF-CEM leukemia
HT29 colon = test system: HT29 colon
M19-MEL melanoma = test system: M19-MEL melanoma
COLO 205 colon = test system: COLO 205 colon
MALME-3M melanoma = test system: MALME-3M melanoma
UACC-62 melanoma = test system: UACC-62 melanoma
DMS 273 small cell lung = test system: DMS 273 small cell lung
SK-MEL-2 melanoma = test system: SK-MEL-2 melanoma
KM12 colon = test system: KM12 colon
OVCAR-5 ovarian = test system: OVCAR-5 ovarian

CNC(=S)NC(=S)N(C)C
TGI (HOP-92 NSCLC): > 100 µM
TGI (SK-MEL-28 melanoma): > 100 µM
TGI (K-562 leukemia): > 100 µM
TGI (HCC-2998 colon): > 100 µM
TGI (RXF-631 renal): > 100 µM
TGI (SK-OV-3 ovarian): > 100 µM
TGI (RXF 393 renal): > 100 µM
TGI (786-0 renal): > 100 µM
TGI (A498 renal): > 100 µM
TGI (HOP-18 NSCLC): > 100 µM
TGI (LXFL 529 NSCLC): > 100 µM
TGI (SF-268 CNS): > 100 µM
TGI (SNB-78 CNS): > 100 µM
TGI (SW-620 colon): > 100 µM
TGI (OVCAR-8 ovarian): > 100 µM
TGI (TK-10 renal): > 100 µM
TGI (A549 NSCLC): > 100 µM
TGI (MOLT-4 leukemia): > 100 µM
TGI (HL-60(TB) leukemia): 20 µM
TGI (SF-539 CNS): > 100 µM
TGI (DMS 114 small cell lung): > 100 µM
TGI (NCI-H522 lung): > 100 µM
TGI (CAKI-1 renal): > 100 µM
TGI (SNB-19 CNS): > 100 µM
TGI (RPMI-8226 leukemia): > 100 µM
TGI (SF-295 CNS): > 100 µM
TGI (EKVX NSCLC): > 100 µM
TGI (M14 melanoma): > 100 µM
TGI (HCT-15 colon): > 100 µM
TGI (DLD-1 colon): > 100 µM
TGI (SN12C renal): > 100 µM
TGI (SNB-75 CNS): > 100 µM
TGI (HCT-116 colon): > 100 µM
TGI (KM20L2 colon): > 100 µM
TGI (ACHN renal): > 100 µM
TGI (XF 498 CNS): > 100 µM
TGI (OVCAR-4 ovarian): > 100 µM
TGI (OVCAR-3 ovarian): > 100 µM
TGI (LOX IMVI melanoma): > 100 µM
TGI (NCI-H226 lung): > 100 µM
TGI (NCI-H460 lung): > 100 µM
TGI (SR leukemia): > 100 µM
TGI (HOP-62 NSCLC): > 100 µM
TGI (U251 CNS): > 100 µM
TGI (UACC-257 melanoma): > 100 µM
TGI (UO-31 renal): > 100 µM
TGI (IGROV1 ovarian): > 100 µM

FC(F)(F)c1cccc2ns[s+]c12
TGI (NCI-H23 lung): > 100 µM
TGI (SK-MEL-28 melanoma): > 100 µM
TGI (K-562 leukemia): > 100 µM
TGI (HCC-2998 colon): > 100 µM
TGI (RXF-631 renal): > 100 µM
TGI (SK-MEL-5 melanoma): > 100 µM
TGI (SK-OV-3 ovarian): > 100 µM
TGI (RXF 393 renal): > 100 µM
TGI (786-0 renal): > 100 µM
TGI (A498 renal): > 100 µM
TGI (HOP-18 NSCLC): > 100 µM
TGI (LXFL 529 NSCLC): > 100 µM
TGI (CCRF-CEM leukemia): > 100 µM
TGI (SF-268 CNS): > 100 µM
TGI (SNB-78 CNS): > 100 µM
TGI (SW-620 colon): > 100 µM
TGI (OVCAR-8 ovarian): > 100 µM
TGI (TK-10 renal): > 100 µM
TGI (A549 NSCLC): > 100 µM
TGI (MOLT-4 leukemia): > 100 µM
TGI (HL-60(TB) leukemia): > 100 µM
TGI (SF-539 CNS): > 100 µM
TGI (NCI-H522 lung): > 100 µM
TGI (HT29 colon): > 100 µM
TGI (CAKI-1 renal): > 100 µM
TGI (SNB-19 CNS): > 100 µM
TGI (M19-MEL melanoma): > 100 µM
TGI (SF-295 CNS): > 100 µM
TGI (EKVX NSCLC): > 100 µM
TGI (M14 melanoma): > 100 µM
TGI (DLD-1 colon): > 100 µM
TGI (SN12C renal): > 100 µM
TGI (SNB-75 CNS): > 100 µM
TGI (HCT-116 colon): > 100 µM
TGI (KM20L2 colon): > 100 µM
TGI (ACHN renal): > 100 µM
TGI (XF 498 CNS): > 100 µM
TGI (OVCAR-4 ovarian): > 100 µM
TGI (COLO 205 colon): > 100 µM
TGI (OVCAR-3 ovarian): > 100 µM
TGI (LOX IMVI melanoma): > 100 µM
TGI (MALME-3M melanoma): > 100 µM
TGI (NCI-H226 lung): > 100 µM
TGI (NCI-H460 lung): > 100 µM
TGI (UACC-62 melanoma): > 100 µM
TGI (SR leukemia): > 100 µM
TGI (HOP-62 NSCLC): > 100 µM
TGI (U251 CNS): > 100 µM
TGI (DMS 273 small cell lung): > 100 µM
TGI (SK-MEL-2 melanoma): > 100 µM
TGI (UACC-257 melanoma): > 100 µM
TGI (KM12 colon): > 100 µM
TGI (UO-31 renal): > 100 µM
TGI (IGROV1 ovarian): > 100 µM
TGI (OVCAR-5 ovarian): > 100 µM

NC(=O)n1ncc(Cl)c(Cl)c1=O
TGI (NCI-H23 lung): > 100 µM
TGI (HOP-92 NSCLC): > 100 µM
TGI (SK-MEL-28 melanoma): > 100 µM
TGI (K-562 leukemia): > 100 µM
TGI (RXF-631 renal): > 100 µM
TGI (SK-MEL-5 melanoma): > 100 µM
TGI (SK-OV-3 ovarian): > 100 µM
TGI (786-0 renal): > 100 µM
TGI (A498 renal): > 100 µM
TGI (HOP-18 NSCLC): > 100 µM
TGI (LXFL 529 NSCLC): > 100 µM
TGI (CCRF-CEM leukemia): > 100 µM
TGI (SF-268 CNS): > 100 µM
TGI (SNB-78 CNS): > 100 µM
TGI (SW-620 colon): > 100 µM
TGI (OVCAR-8 ovarian): > 100 µM
TGI (TK-10 renal): > 100 µM
TGI (A549 NSCLC): > 100 µM
TGI (HL-60(TB) leukemia): > 100 µM
TGI (SF-539 CNS): > 100 µM
TGI (DMS 114 small cell lung): > 100 µM
TGI (NCI-H522 lung): > 100 µM
TGI (HT29 colon): > 100 µM
TGI (CAKI-1 renal): > 100 µM
TGI (SNB-19 CNS): > 100 µM
TGI (M19-MEL melanoma): > 100 µM
TGI (SF-295 CNS): > 100 µM
TGI (EKVX NSCLC): > 100 µM
TGI (M14 melanoma): > 100 µM
TGI (HCT-15 colon): > 100 µM
TGI (DLD-1 colon): > 100 µM
TGI (SN12C renal): > 100 µM
TGI (SNB-75 CNS): > 100 µM
TGI (HCT-116 colon): > 100 µM
TGI (KM20L2 colon): > 100 µM
TGI (ACHN renal): > 100 µM
TGI (XF 498 CNS): > 100 µM
TGI (OVCAR-4 ovarian): > 100 µM
TGI (COLO 205 colon): > 100 µM
TGI (OVCAR-3 ovarian): > 100 µM
TGI (MALME-3M melanoma): > 100 µM
TGI (NCI-H226 lung): > 100 µM
TGI (NCI-H460 lung): > 100 µM
TGI (UACC-62 melanoma): > 100 µM
TGI (HOP-62 NSCLC): > 100 µM
TGI (U251 CNS): > 100 µM
TGI (DMS 273 small cell lung): > 100 µM
TGI (SK-MEL-2 melanoma): > 100 µM
TGI (UACC-257 melanoma): > 100 µM
TGI (KM12 colon): > 100 µM
TGI (UO-31 renal): > 100 µM
TGI (IGROV1 ovarian): > 100 µM
TGI (OVCAR-5 ovarian): > 100 µM
